Columns and labels:
Details in all cases: incubation time: 72 h
[1] = tested on: BT-474; experiment: normalised response (% of control), CellTiter-Glo; higher = more viable cells (100 = DMSO, 0 = benzethonium chloride kill control)
Outline: (§1)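 Values are normalised signals, each belonging to one concentration of the series. Breast cancer cells (20 µl suspension) were seeded into 384-well plates with compound at 5 concentrations in 10-fold steps over a compound-specific 10,000-fold range and incubated 72 h. Readouts were CellTox Green fluorescence (485/520 nm), then CellTiter-Glo luminescence after 10 min at room temperature, with each plate set to 0.1 % DMSO as 100 and a positive kill control as 0.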

[2] = tested on: BT-549; experiment: as above
Outline: as §1

[3] = tested on: CAL-120; experiment: as above
Outline: as §1

[4] = tested on: CAL-148; experiment: as above
Outline: as §1

[5] = tested on: CAL-51; experiment: as above
Outline: as §1

[6] = tested on: CAL-85-1; experiment: as above
Outline: as §1

[7] = tested on: DU-4475; experiment: as above
Outline: as §1

[8] = tested on: HCC1143; experiment: as above
Outline: as §1

[9] = tested on: HCC1599; experiment: as above
Outline: as §1

[10] = tested on: HCC1937; experiment: as above
Outline: as §1

[11] = tested on: HDQ-P1; experiment: as above
Outline: as §1

[12] = tested on: Hs578T; experiment: as above
Outline: as §1

[13] = tested on: MCF-10A; experiment: as above
Outline: as §1

[14] = tested on: MDA-MB-231; experiment: as above
Outline: as §1

[15] = tested on: MDA-MB-436; experiment: as above
Outline: as §1

[16] = tested on: MDA-MB-453; experiment: as above
Outline: as §1

[17] = tested on: MDA-MB-468; experiment: as above
Outline: as §1

[18] = tested on: MFM-223; experiment: as above
Outline: as §1

[19] = tested on: SK-BR-3; experiment: as above
Outline: as §1

[20] = tested on: BT-474; experiment: normalised viability (% of control), CellTiter-Blue; higher = more viable cells (100 = DMSO, 0 = benzethonium chloride kill control)
Method: (§2)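 DSRT, CellTiter-Blue viability, 72 h incubation. Signal is normalised to DMSO and benzethonium chloride controls. Value is the normalised response at dose 1.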

[21] = tested on: BT-549; experiment: as above
Method: as §2

[22] = tested on: CAL-120; experiment: as above
Method: as §2

[23] = tested on: CAL-148; experiment: as above
Method: as §2

[24] = tested on: CAL-51; experiment: as above
Method: as §2

[25] = tested on: CAL-85-1; experiment: as above
Method: as §2

[26] = tested on: DU-4475; experiment: as above
Method: as §2

[27] = tested on: HCC1143; experiment: as above
Method: as §2

[28] = tested on: HCC1599; experiment: as above
Method: as §2

[29] = tested on: HCC1937; experiment: as above
Method: as §2

[30] = tested on: HDQ-P1; experiment: as above
Method: as §2

[31] = tested on: Hs578T; experiment: as above
Method: as §2

[32] = tested on: MDA-MB-231; experiment: as above
Method: as §2

[33] = tested on: MDA-MB-436; experiment: as above
Method: as §2

[34] = tested on: MDA-MB-453; experiment: as above
Method: as §2

[35] = tested on: MDA-MB-468; experiment: as above
Method: as §2

[36] = tested on: MFM-223; experiment: as above
Method: as §2

[37] = tested on: SK-BR-3; experiment: as above
Method: as §2

| SMILES | normalised response [1] | normalised response [2] | normalised response [3] | normalised response [4] | normalised response [5] | normalised response [6] | normalised response [7] | normalised response [8] | normalised response [9] | normalised response [10] | normalised response [11] | normalised response [12] | normalised response [13] | normalised response [14] | normalised response [15] | normalised response [16] | normalised response [17] | normalised response [18] | normalised response [19] | normalised viability [20] | normalised viability [21] | normalised viability [22] | normalised viability [23] | normalised viability [24] | normalised viability [25] | normalised viability [26] | normalised viability [27] | normalised viability [28] | normalised viability [29] | normalised viability [30] | normalised viability [31] | normalised viability [32] | normalised viability [33] | normalised viability [34] | normalised viability [35] | normalised viability [36] | normalised viability [37] |
| --- | --- | --- | --- | --- | --- | --- | --- | --- | --- | --- | --- | --- | --- | --- | --- | --- | --- | --- | --- | --- | --- | --- | --- | --- | --- | --- | --- | --- | --- | --- | --- | --- | --- | --- | --- | --- | --- |
| CC1(C)CNc2cc(NC(=O)c3cccnc3NCc3ccncc3)ccc21 [Motesanib] (1 nM) | 91.2% | 99.7% | 94% | 89.4% | 107% | 96% | 99.9% | 99% | 91.5% | 93.1% | 93.5% | 96.9% | 91.8% | 97.1% | 94.8% | 103% | 103% | 101% | 92.1% | 96.6% | 103% | 79.6% | 96.5% | 110% | 75.9% | 94.1% | 86.3% | 84.8% | 93.4% | 84.2% | 103% | 76.7% | 71.3% | 85% | 87.1% | 77.8% | 82.2% |
| Oc1ncnc2[nH]ncc12 [Allopurinol] (1 nM) | 101% | 106% | 100% | 100% | 95.1% | 99.3% | 102% | 108% | 101% | 98.2% | 101% | 103% | 108% | 101% | 99.9% | 113% | 109% | 105% | 117% | 97.2% | 92.2% | 111% | 119% | 92.5% | 112% | 109% | 106% | 91.2% | 78.6% | 108% | 95.6% | 93.5% | 102% | 116% | 109% | 96.2% | 91.7% |
| CC1=C2C[C@H]3[C@@H](CC=C4C[C@@H](O)CC[C@@]43C)[C@@H]2CC[C@]12O[C@@H]1C[C@H](C)CN[C@H]1[C@H]2C [Cyclopamine] (1 nM) | 103% | 104% | 107% | 123% | 107% | 100% | 106% | 103% | 98.1% | 106% | 103% | 103% | 108% | 103% | 106% | 111% | 101% | 103% | 115% | 118% | 111% | 94% | 117% | 109% | 94.5% | 120% | 97.4% | 96.5% | 109% | 135% | 121% | 100% | 126% | 102% | 103% | 97.5% | 97.3% |
| O=C1CN2Cc3c(ccc(Cl)c3Cl)N=C2N1 [Anagrelide] (1 nM) | 90.6% | 101% | 92.8% | 90.2% | 110% | 99.5% | 102% | 100% | 105% | 97.1% | 110% | 100% | 94% | 97.2% | 86% | 109% | 103% | 98.8% | 104% | 122% | 113% | 84.6% | 103% | 105% | 88.7% | 109% | 90.1% | 87.8% | 68.3% | 112% | 119% | 102% | 80.8% | 105% | 101% | 98.9% | 96.1% |
| Nc1ncn([C@@H]2O[C@H](CO)[C@@H](O)[C@H]2O)c(=O)n1 [Azacitidine] (1 nM) | 97.1% | 96.5% | 95.9% | 96.1% | 129% | 103% | 102% | 95.4% | 96.8% | 94% | 98.7% | 98.7% | 101% | 101% | 102% | 112% | 100% | 104% | 105% | 89.5% | 93.7% | 84.4% | 92% | 102% | 94.9% | 109% | 89.3% | 89.1% | 85% | 99.9% | 105% | 89.3% | 108% | 102% | 95.5% | 95.5% | 94.6% |
| Cc1sc2c(c1C)C(c1ccc(Cl)cc1)=N[C@@H](CC(=O)OC(C)(C)C)c1nnc(C)n1-2 [(+)JQ1] (1 nM) | 107% | 103% | 98.5% | 113% | 85% | 97.2% | 106% | 103% | 96.6% | 95.8% | 101% | 98.1% | 105% | 106% | 127% | 126% | 103% | 104% | 111% | 114% | 104% | 90.3% | 108% | 97.5% | 87.4% | 110% | 126% | 113% | 97.4% | 90.9% | 114% | 114% | 139% | 177% | 104% | 102% | 107% |
| COc1cc2c(cc1O)CC[C@@H]1[C@@H]2CC[C@]2(C)[C@@H](O)CC[C@@H]12 [2-methoxyestradiol] (1 nM) | 96.7% | 103% | 94.9% | 97.3% | 122% | 102% | 99% | 97.8% | 104% | 98.8% | 97.1% | 106% | 92.5% | 104% | 101% | 106% | 104% | 95.9% | 87.2% | 102% | 96.4% | 92.1% | 102% | 112% | 91.6% | 107% | 88.9% | 101% | 87.5% | 97.1% | 105% | 88.8% | 115% | 95.5% | 103% | 102% | 89.3% |

Reference: the supplement of paper PMC4862054
